Experimental data from ChEMBL document CHEMBL4368907 (J Med Chem, 2019).
Active and inactive are the calls of the source. The rule behind the calls is not given here. Numbered stars: 1 amine (or outer) side, 2 acyl side, 3 side chain; on linkers, the order of the positions; unused ones are H or OH. Square brackets hold non-standard residues; d marks the D form. Side chains are listed from the residue outwards. Peptide text beside a SMILES is read from it. * marks the point of attachment. Phe(4-CH2SO3H) = N[C@@H](Cc1ccc(CS(=O)(=O)O)cc1)C(=O)O; Ala(indol-2-yl) = N[C@@H](Cc1cc2ccccc2[nH]1)C(=O)O; C20 diacid = O=C(O)CCCCCCCCCCCCCCCCCCC(=O)*; sY = N[C@@H](Cc1ccc(OS(=O)(=O)O)cc1)C(=O)O; C18 diacid = O=C(O)CCCCCCCCCCCCCCCCC(=O)*; NMe1Nal = CN[C@@H](Cc1cccc2ccccc12)C(=O)O; γGlu = O=C(O)[C@H](CCC(=O)[*:2])N[*:1]; 1Nal = N[C@@H](Cc1cccc2ccccc12)C(=O)O; C14 diacid = O=C(O)CCCCCCCCCCCCC(=O)*; Glutaryl = O=C(CCCC(=O)[*:2])[*:1]; NMeF = CN[C@@H](Cc1ccccc1)C(=O)O; NMeD = CN[C@@H](CC(=O)O)C(=O)O; dNMeD = CN[C@H](CC(=O)O)C(=O)O; Nle = CCCC[C@H](N)C(=O)O; Dap = NC[C@H](N)C(=O)O; AEEA = NCCOCCOCC(=O)O

Assays:
[1] = biological target: T1, Cholecystokinin receptor type A (Homo sapiens, UniProt P32238); assay: (§1) Displacement of [125I]-CCK-8 from human CCK1R expressed in human 1321N1 cell membranes after 2 hrs by SPA assay
T1 sequence (P32238 whole entry): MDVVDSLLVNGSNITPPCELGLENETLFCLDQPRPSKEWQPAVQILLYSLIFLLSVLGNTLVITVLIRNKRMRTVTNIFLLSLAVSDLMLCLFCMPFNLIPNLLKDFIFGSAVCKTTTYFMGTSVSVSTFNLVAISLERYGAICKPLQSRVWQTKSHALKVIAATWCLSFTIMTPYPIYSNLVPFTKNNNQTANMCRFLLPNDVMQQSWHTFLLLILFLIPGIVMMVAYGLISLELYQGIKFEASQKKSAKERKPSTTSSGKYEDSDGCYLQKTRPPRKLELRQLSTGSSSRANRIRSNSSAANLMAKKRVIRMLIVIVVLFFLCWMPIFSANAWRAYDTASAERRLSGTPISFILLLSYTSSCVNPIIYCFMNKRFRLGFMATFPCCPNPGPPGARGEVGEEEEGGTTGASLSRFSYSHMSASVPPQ

[2] = biological target: T1, Cholecystokinin receptor type A; assay: (§2) Agonist activity at human CCK1R expressed in human 1321N1 cells assessed as IP1 accumulation after 1 hr by HTRF assay; format: functional, cell-based
[3] = biological target: T2, Gastrin/cholecystokinin type B receptor (Homo sapiens, UniProt P32239); assay: (§3) Agonist activity at human CCK2R expressed in human 1321N1 cells assessed as IP1 accumulation after 1 hr by HTRF assay; format: functional, cell-based
T2 sequence (P32239 whole entry): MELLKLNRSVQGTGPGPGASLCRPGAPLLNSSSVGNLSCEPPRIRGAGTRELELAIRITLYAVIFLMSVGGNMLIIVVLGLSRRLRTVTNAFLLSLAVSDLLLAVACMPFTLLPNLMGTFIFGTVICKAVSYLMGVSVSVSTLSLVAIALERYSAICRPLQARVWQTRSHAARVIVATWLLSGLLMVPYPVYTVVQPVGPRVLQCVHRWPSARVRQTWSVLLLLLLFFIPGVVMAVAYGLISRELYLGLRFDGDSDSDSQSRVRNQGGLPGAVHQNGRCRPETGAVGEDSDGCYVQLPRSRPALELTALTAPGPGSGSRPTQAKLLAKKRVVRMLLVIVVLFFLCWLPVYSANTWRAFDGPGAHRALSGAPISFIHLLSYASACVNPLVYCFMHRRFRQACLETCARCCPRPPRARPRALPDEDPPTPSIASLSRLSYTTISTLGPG

[4] = Terminal half life in Ellegaard Gottingen minipig at 5 nmol/kg, iv by LC-MS/MS analysis; format: ADME, organism-based, Sus scrofa; details: pig, in vivo, read-out: beta t1/2 (converted)
[5] = biological target: T3, Cholecystokinin receptor type A (Homo sapiens) (UniProt P32238); assay: as §1
T3 sequence (whole entry): T1 sequence (P32238 whole entry)

[6] = biological target: T4, Gastrin/cholecystokinin type B receptor (Homo sapiens) (UniProt P32239); assay: (§4) Displacement of [125I]-CCK-8 from human CCK2R expressed in human 1321N1 cell membranes after 2 hrs by SPA assay
T4 sequence (whole entry): T2 sequence (P32239 whole entry)

[7] = biological target: T3, Cholecystokinin receptor type A (Homo sapiens); assay: as §2; format: functional, cell-based
[8] = biological target: T4, Gastrin/cholecystokinin type B receptor (Homo sapiens); assay: as §3; format: functional, cell-based
[9] = biological target: T2, Gastrin/cholecystokinin type B receptor; assay: as §4

Compound	IC50 [1] [nM]	EC50 [2] [nM]	EC50 [3] [nM]	half-life [4] [h]	IC50 [9] [nM]	further results
CCCC[C@H](NC(=O)[C@H](Cc1ccc(OS(=O)(=O)O)cc1)NC(=O)[C@H](CC(=O)O)NC(=O)COCCOCCNC(=O)COCCOCCNC(=O)CC[C@H](NC(=O)CCCCCCCCCCCCCCCCC(=O)O)C(=O)O)C(=O)NCC(=O)N[C@@H](Cc1c[nH]c2ccccc12)C(=O)N[C@@H](CCCC)C(=O)N(C)[C@H](CC(=O)O)C(=O)N[C@@H](Cc1cccc2ccccc12)C(N)=O ({C18 diacid-γGlu-AEEA-AEEA}-D[sY][Nle]GW[Nle][dNMeD][1Nal]-NH2)	0.0741	0.363	89.1	140		
CCCC[C@H](NC(=O)[C@H](Cc1ccc(OS(=O)(=O)O)cc1)NC(=O)[C@H](CC(=O)O)NC(=O)COCCOCCNC(=O)COCCOCCNC(=O)CC[C@H](NC(=O)CCCCCCCCCCCCCCCCC(=O)O)C(=O)O)C(=O)NCC(=O)N[C@@H](Cc1c[nH]c2ccccc12)C(=O)N[C@@H](Cc1ccccc1)C(=O)N[C@@H](CC(=O)O)C(=O)N[C@@H](Cc1ccccc1)C(N)=O ({C18 diacid-γGlu-AEEA-AEEA}-D[sY][Nle]GWFDF-NH2)						pIC50 [5]: inactive; pIC50 [6]: inactive; pEC50 [7]: inactive; pEC50 [8]: inactive
CCCC[C@H](NC(=O)[C@H](Cc1ccc(OS(=O)(=O)O)cc1)NC(=O)[C@H](CC(=O)O)NC(=O)COCCOCCNC(=O)COCCOCCNC(=O)CC[C@H](NC(=O)CCCCCCCCCCCCCCCCC(=O)O)C(=O)O)C(=O)NCC(=O)N[C@@H](Cc1c[nH]c2ccccc12)C(=O)N[C@@H](CO)C(=O)N[C@@H](CC(=O)O)C(=O)N[C@@H](Cc1ccccc1)C(N)=O ({C18 diacid-γGlu-AEEA-AEEA}-D[sY][Nle]GWSDF-NH2)						pIC50 [5]: inactive; pIC50 [6]: inactive; pEC50 [7]: inactive; pEC50 [8]: inactive
CCCC[C@H](NC(=O)[C@H](Cc1ccc(OS(=O)(=O)O)cc1)NC(=O)[C@H](CC(=O)O)NC(=O)COCCOCCNC(=O)COCCOCCNC(=O)CC[C@H](NC(=O)CCCCCCCCCCCCCCCCC(=O)O)C(=O)O)C(=O)NCC(=O)N[C@@H](Cc1c[nH]c2ccccc12)C(=O)N[C@@H](C)C(=O)N[C@@H](CC(=O)O)C(=O)N[C@@H](Cc1ccccc1)C(N)=O ({C18 diacid-γGlu-AEEA-AEEA}-D[sY][Nle]GWADF-NH2)						pIC50 [5]: inactive; pIC50 [6]: inactive; pEC50 [7]: inactive; pEC50 [8]: inactive
CCCC[C@H](NC(=O)[C@H](Cc1ccc(OS(=O)(=O)O)cc1)NC(=O)[C@H](CC(=O)O)NC(=O)COCCOCCNC(=O)COCCOCCNC(=O)CC[C@H](NC(=O)CCCCCCCCCCCCCCCCC(=O)O)C(=O)O)C(=O)NCC(=O)N[C@@H](Cc1c[nH]c2ccccc12)C(=O)N[C@@H](CCCCN)C(=O)N[C@@H](CC(=O)O)C(=O)N[C@@H](Cc1ccccc1)C(N)=O ({C18 diacid-γGlu-AEEA-AEEA}-D[sY][Nle]GWKDF-NH2)						pIC50 [5]: inactive; pIC50 [6]: inactive; pEC50 [7]: inactive; pEC50 [8]: inactive
CCCC[C@H](NC(=O)[C@H](Cc1c[nH]c2ccccc12)NC(=O)CNC(=O)[C@H](CC(C)C)NC(=O)[C@H](Cc1ccc(CS(=O)(=O)O)cc1)NC(=O)[C@H](CC(=O)O)NC(=O)COCCOCCNC(=O)COCCOCCNC(=O)CC[C@H](NC(=O)CCCCCCCCCCCCC(=O)O)C(=O)O)C(=O)N(C)[C@H](CC(=O)O)C(=O)N(C)[C@@H](Cc1ccccc1)C(N)=O ({C14 diacid-γGlu-AEEA-AEEA}-D[Phe(4-CH2SO3H)]LGW[Nle][dNMeD][NMeF]-NH2)	0.155	0.182		2		
CCCC[C@H](NC(=O)[C@H](Cc1c[nH]c2ccccc12)NC(=O)CNC(=O)[C@H](CC(C)C)NC(=O)[C@H](Cc1ccc(CS(=O)(=O)O)cc1)NC(=O)[C@H](CC(=O)O)NC(=O)COCCOCCNC(=O)COCCOCCNC(=O)CC[C@H](NC(=O)CCCCCCCCCCCCCCCCCCC(=O)O)C(=O)O)C(=O)N(C)[C@H](CC(=O)O)C(=O)N(C)[C@@H](Cc1ccccc1)C(N)=O ({C20 diacid-γGlu-AEEA-AEEA}-D[Phe(4-CH2SO3H)]LGW[Nle][dNMeD][NMeF]-NH2)	0.0407	0.372		153		
CCCC[C@H](NC(=O)[C@H](Cc1c[nH]c2ccccc12)NC(=O)CNC(=O)[C@H](CC(C)C)NC(=O)[C@H](Cc1ccc(OS(=O)(=O)O)cc1)NC(=O)[C@H](CC(=O)O)NC(=O)CCCCCCCCCCCCCCCCC(=O)O)C(=O)N(C)[C@H](CC(=O)O)C(=O)N(C)[C@@H](Cc1ccccc1)C(N)=O	0.107			2.6		
CCCC[C@H](NC(=O)[C@H](Cc1cc2ccccc2[nH]1)NC(=O)CNC(=O)[C@H](CCCCNC(=O)COCCOCCNC(=O)COCCOCCNC(=O)CC[C@H](NC(=O)CCCCCCCCCCCCCCCCC(=O)O)C(=O)O)NC(=O)[C@H](Cc1ccc(OS(=O)(=O)O)cc1)NC(=O)[C@H](CC(=O)O)NC(C)=O)C(=O)N(C)[C@@H](CC(=O)O)C(=O)N(C)[C@@H](Cc1ccccc1)C(N)=O (Ac-D[sY]K([AEEA-AEEA-γGlu-C18 diacid])G[Ala(indol-2-yl)][Nle][NMeD][NMeF]-NH2)						pIC50 [1]: 10.19; pIC50 [9]: 6.24; pEC50 [2]: 9.61; pEC50 [3]: 6.5
CCCC[C@H](NC(=O)[C@H](CNC(=O)CCCC(=O)O)NC(=O)[C@H](CC(=O)O)NC(=O)COCCOCCNC(=O)COCCOCCNC(=O)CC[C@H](NC(=O)CCCCCCCCCCCCCCCCC(=O)O)C(=O)O)C(=O)NCC(=O)N[C@@H](Cc1c[nH]c2ccccc12)C(=O)N[C@@H](CCCC)C(=O)N[C@@H](CC(=O)O)C(=O)N[C@@H](Cc1ccccc1)C(N)=O ({C18 diacid-γGlu-AEEA-AEEA}-D[Dap](Glutaryl)[Nle]GW[Nle]DF-NH2)	832	229	0.38		5.75	
CCCC[C@H](NC(=O)[C@H](Cc1ccc(OS(=O)(=O)O)cc1)NC(=O)[C@H](CC(=O)O)NC(=O)COCCOCCNC(=O)COCCOCCNC(=O)CC[C@H](NC(=O)CCCCCCCCCCCCCCCCC(=O)O)C(=O)O)C(=O)NCC(=O)N[C@@H](Cc1c[nH]c2ccccc12)C(=O)N[C@@H](CCCC)C(=O)N(C)[C@@H](CC(=O)O)C(=O)N[C@@H](Cc1cccc2ccccc12)C(N)=O ({C18 diacid-γGlu-AEEA-AEEA}-D[sY][Nle]GW[Nle][NMeD][1Nal]-NH2)	0.0794	0.501	1.86		115	
CCCC[C@H](NC(=O)[C@H](Cc1c[nH]c2ccccc12)NC(=O)CNC(=O)[C@H](CC(C)C)NC(=O)[C@H](Cc1ccc(OS(=O)(=O)O)cc1)NC(=O)[C@H](CC(=O)O)NC(=O)COCCOCCNC(=O)COCCOCCNC(=O)CC[C@H](NC(=O)CCCCCCCCCCCCCCCCC(=O)O)C(=O)O)C(=O)N(C)[C@H](CC(=O)O)C(=O)N(C)[C@@H](Cc1cccc2ccccc12)C(N)=O ({C18 diacid-γGlu-AEEA-AEEA}-D[sY]LGW[Nle][dNMeD][NMe1Nal]-NH2)		0.407	151	147	2040	

Continued, in another order:

IC50 [1] [nM]	EC50 [2] [nM]	EC50 [3] [nM]	half-life [4] [h]	IC50 [9] [nM]	Compound	further results
2.24	0.324	0.417		0.132	CCCC[C@H](NC(=O)[C@H](Cc1ccc(OS(=O)(=O)O)cc1)NC(=O)[C@H](CC(=O)O)NC(=O)COCCOCCNC(=O)COCCOCCNC(=O)CC[C@H](NC(=O)CCCCCCCCCCCCCCCCC(=O)O)C(=O)O)C(=O)NCC(=O)N[C@@H](Cc1c[nH]c2ccccc12)C(=O)N[C@@H](CCCC)C(=O)N[C@@H](CC(=O)O)C(=O)N[C@@H](Cc1c[nH]c2ccccc12)C(N)=O ({C18 diacid-γGlu-AEEA-AEEA}-D[sY][Nle]GW[Nle]DW-NH2)	
0.245	0.0676	0.447		0.891	CCCC[C@H](NC(=O)[C@H](Cc1c[nH]c2ccccc12)NC(=O)CNC(=O)[C@H](CC(C)C)NC(=O)[C@H](Cc1ccc(CS(=O)(=O)O)cc1)NC(=O)[C@H](CC(=O)O)NC(=O)COCCOCCNC(=O)COCCOCCNC(=O)CC[C@H](NC(=O)CCCCCCCCCCCCCCCCC(=O)O)C(=O)O)C(=O)N[C@@H](CC(=O)O)C(=O)N[C@@H](Cc1ccccc1)C(N)=O ({C18 diacid-γGlu-AEEA-AEEA}-D[Phe(4-CH2SO3H)]LGW[Nle]DF-NH2)	
1.26	0.166	0.295		0.158	CCCC[C@H](NC(=O)[C@H](Cc1c[nH]c2ccccc12)NC(=O)CNC(=O)[C@H](CCC(=O)O)NC(=O)[C@H](Cc1ccc(OS(=O)(=O)O)cc1)NC(=O)[C@H](CC(=O)O)NC(=O)COCCOCCNC(=O)COCCOCCNC(=O)CC[C@H](NC(=O)CCCCCCCCCCCCCCCCC(=O)O)C(=O)O)C(=O)N[C@@H](CC(=O)O)C(=O)N[C@@H](Cc1ccccc1)C(N)=O ({C18 diacid-γGlu-AEEA-AEEA}-D[sY]EGW[Nle]DF-NH2)	
